Measurements: patent US20230312605A1, “PYRROLO[2,1-F][1,2,4]TRIAZINES AND PREPARATION AND USES THEREOF” (BioSplice Therapeutics, Inc., priority 2021, published 2023)

Target: recombinant DYRK1A kinase (Homo sapiens (Human), UniProt Q13627)
Assay: DYRK1A kinase assay (Ser/Thr 18 peptide Z-lyte FRET assay)
Assay type: biochemical
Settings: recombinant DYRK1A 0.25 µg/mL, ATP 15 µM, Ser/Thr peptide 18 4 µM, one hour at room temperature; table head prints EC50, method says IC50
How it was run: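 Recombinant human DYRK1A (0.25 µg/mL) with 15 µM ATP and 4 µM Ser/Thr 18 peptide was incubated 1 h at room temperature with compound (11-point, 10 µM top), in duplicate. Z-lyte FRET read-out (coumarin/fluorescein emission ratio) was converted to percent phosphorylation; IC50 from non-linear regression.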

| Molecule | EC50 |
| --- | --- |
| Cc1nc2ccc(-c3ccn4nc(NCC(C)(C)O)ncc34)nc2n1CC(F)F [Compound 1833, 1-((5-(3-(2,2-Difluoroethyl)-2-methyl-3H-imidazo[4,5-b]pyridin-5-yl)pyrrolo[2,1-f][1,2,4]triazin-2-yl)amino)-2-methylpropan-2-ol] | 8 nM |
| 1-(4-((5-(1-(2,2-Difluoroethyl)-2-methyl-1H-imidazo[4,5-b]pyridin-6-yl)pyrrolo[2, 1-f] [1,2,4]triazin-2-yl)amino)piperidin- 1-yl)ethan-1 -one [Compound 1910] | 4 nM |
| CO[C@H]1CC[C@@H](Nc2ncc3c(-c4cnc5ncccc5c4)ccn3n2)CC1 [Compound 1537, N-(cis-4-Methoxycyclohexyl)-5-(1,8-naphthyridin-3-yl)pyrrolo[2,1-f] [1,2,4]triazin-2-amine] | 3 nM |
| c1cn2cc(-c3ccn4nc(NC5CC6(CNC6)C5)ncc34)cnc2n1 [Compound 1732, 5-(Imidazo[1,2-a]pyrimidin-6-yl)-N-(2-azaspiro[3.3]heptan-6-yl)pyrrolo[2,1-f][1,2,4]triazin-2-amine] | 13 nM |
| Cc1nc2c(F)cc(-c3ccn4nc(NCC(C)(C)F)ncc34)cc2n1C(C)C [Compound 500] | 44 nM |
| COc1ncnc2ccc(-c3ccn4nc(NCC(C)(C)F)ncc34)cc12 [Compound 1423, N-(2-Fluoro-2-methylpropyl)-5-(4-methoxyquinazolin-6-yl)pyrrolo[2,1-f] [1,2,4]triazin-2-amine] | 149 nM |
| CN1CC2(CC(Nc3ncc4c(-c5cnc6nccn6c5)ccn4n3)C2)C1 [Compound 283, 5-(Imidazo[1,2-a]pyrimidin-6-yl)-N-(2-methyl-2-azaspiro[3.3]heptan-6-yl)pyrrolo[2,1-f][1,2,4]triazin-2-amine] | 20 nM |
| CC1(CNc2ncc3c(-c4cnc5nccn5c4)ccn3n2)CC1 [Compound 225, 5-(Imidazo[1,2-a]pyrimidin-6-yl)-N-((1-methylcyclopropyl)methyl)pyrrolo [2,1-f][1,2,4]triazin-2-amine] | 11 nM |
| Cc1nc2ccc(-c3ccn4nc(NC5CC6(CCN(C)CC6)C5)ncc34)nc2n1CC(F)F [Compound 1836, 5-(3-(2,2-Difluoroethyl)-2-methyl-3H-imidazo[4,5-b]pyridin-5-yl)-N-(7-methyl-7-azaspiro[3.5]nonan-2-yl)pyrrolo[2,1-f][1,2,4]triazin-2-amine] | 3 nM |
| C[C@]1(O)CC[C@@H](Nc2ncc3c(-c4cnc5ncccc5c4)ccn3n2)CC1 [Compound 1536, (1 s,4s)-4-((5-(1,8 -Naphthyridin-3-yl)pyrrolo [2,1-f] [1,2,4]triazin-2-yl)amino)-1-methylcyclohexan-1-ol] | 5 nM |
| Cc1nc2ccc(-c3ccn4nc(NC5CCN(CC(F)F)CC5)ncc34)nc2n1CC(F)F [Compound 1850, 5-(3-(2,2-Difluoroethyl)-2-methyl-3H-imidazo[4,5-b]pyridin-5-yl)-N-(1-(2,2-difluoroethyl)piperidin-4-yl)pyrrolo[2,1-f][1,2,4]triazin-2-amine] | 8 nM |
| CN1CC2(CC(Nc3ncc4c(-c5ccc6ncccc6c5)ccn4n3)C2)C1 [Compound 1348, N-(2-Methyl-2-azaspiro[3.3]heptan-6-yl)-5-(quinolin-6-yl)pyrrolo[2,1-f] [1,2,4]triazin-2-amine] | 5 nM |
| COCCO[C@H]1CC[C@H](Nc2ncc3c(-c4cnc5nc(C)n(CC(F)F)c5c4)ccn3n2)CC1 [Compound 692, 5-(1-(2,2-Difluoroethyl)-2-methyl-1H-imidazo[4,5-b]pyridin-6-yl)-N-(trans-4-(2-methoxyethoxy)cyclohexyl)pyrrolo[2,1-f][1,2,4]triazin-2-amine] | 28 nM |
| Cc1nc2ccc(-c3ccn4nc(N[C@H]5CC[C@@](C)(O)CC5)ncc34)nc2n1CC(F)F [Compound 1110, (1s,4s)-4-((5-(3-(2,2-Difluoroethyl)-2-methyl-3H-imidazo[4,5-b]pyridin-5-yl)pyrrolo[2,1-f][1,2,4]triazin-2-yl)amino)-1-methylcyclohexan-1-ol] | 3 nM |
| CC(C)CN1CC2(CC(Nc3ncc4c(-c5cnc6nccn6c5)ccn4n3)C2)C1 [Compound 1756, 5-(Imidazo[1,2-a]pyrimidin-6-yl)-N-(2-isobutyl-2-azaspiro[3.3]heptan-6-yl)pyrrolo [2,1-f][1,2,4]triazin-2-amine] | 18 nM |
| Cc1nc2ncc(-c3ccn4nc(N[C@H]5CC[C@@H](OC(F)(F)F)CC5)ncc34)cc2n1CC(F)F [Compound 1786, 5-(1-(2,2-Difluoroethyl)-2-methyl-1H-imidazo[4,5-b]pyridin-6-yl)-N-(cis-4-(trifluoromethoxy)cyclohexyl)pyrrolo[2,1-f][1,2,4]triazin-2-amine] | 5 nM |
| C[C@@H](Nc1ncc2c(-c3cnc4nccn4c3)ccn2n1)C(F)(F)F [Compound 219, (R)-5-(Imidazo[1,2-a]pyrimidin-6-yl)-N-(1,1,1-trifluoropropan-2-yl)pyrrolo [2,1-f][1,2,4]triazin-2-amine] | 14 nM |
| Cc1nc2ncc(-c3ccn4nc(N[C@H]5CC[C@@](C)(O)CC5)ncc34)cc2n1CC(F)F [Compound 684, cis-4-((5-(1-(2,2-Difluoroethyl)-2-methyl-1H-imidazo[4,5-b]pyridin-6-yl)pyrrolo[2,1-f][1,2,4]triazin-2-yl)amino)-1-methylcyclohexan-1-ol] | 4 nM |
| CC(C)OCCNc1ncc2c(-c3ccc4nccn4c3)ccn2n1 [Compound 11, 5-(Imidazo[1,2-a]pyridin-6-yl)-N-(2-isopropoxyethyl)pyrrolo[2,1-f][1,2,4] triazin-2-amine] | 116 nM |
| CN1CCC(Nc2ncc3c(-c4ccc5nccn5c4)ccn3n2)CC1 [Compound 66, 5-(Imidazo[1,2-a]pyridin-6-yl)-N-(1-methylpiperidin-4-yl)pyrrolo[2,1-f] [1,2,4]triazin-2-amine] | 264 nM |

Continued, values first:

| EC50 | Molecule |
| --- | --- |
| 3 nM | Cc1nc2ccc(-c3ccn4nc(N[C@H]5CC[C@@H](C(=O)N6CCC6)CC5)ncc34)nc2n1CC(F)F [Compound 1896, azetidin-1-yl(cis-4-((5-(3-(2,2-difluoroethyl)-2-methyl-3H-imidazo[4,5-b]pyridin-5-yl)pyrrolo[2,1-f][1,2,4]triazin-2-yl)amino)cyclohexyl)methanone] |
| 7 nM | Cc1nc2ccc(-c3ccn4nc(NC5CCN(S(C)(=O)=O)CC5)ncc34)nc2n1CC(F)F [Compound 1861, 5-(3-(2,2-Difluoroethyl)-2-methyl-3H-imidazo[4,5-b]pyridin-5-yl)-N-(1-(methylsulfonyl)piperidin-4-yl)pyrrolo[2,1-f][1,2,4]triazin-2-amine] |
| 7 nM | Cc1nc2ccc(-c3ccn4nc(NC5CCN(C(=O)[C@H]6CC6(F)F)CC5)ncc34)nc2n1CC(F)F [Compound 1918, (R)-(2,2-Difluorocyclopropyl)(4-((5-(3-(2,2-difluoroethyl)-2-methyl-3H-imidazo[4,5-b]pyridin-5-yl)pyrrolo[2,1-f] [1,2,4]triazin-2-yl)amino)piperidin-1-yl)methanone] |
| 5 nM | Cc1nc2ccc(-c3ccn4nc(N[C@@H]5CN(C)C[C@@H]5F)ncc34)nc2n1CC(F)F [Compound 1900] |
| 131 nM | Cc1nc2ccc(-c3ccn4nc(NC5CCC(F)(F)CC5)ncc34)nc2n1CC1CNC1 [Compound 1873, 5-(3-(Azetidin-3-ylmethyl)-2-methyl-3H-imidazo[4,5-b]pyridin-5-yl)-N-(4,4-difluorocyclohexyl)pyrrolo[2,1-f][1,2,4]triazin-2-amine] |
| 13 nM | Cc1nc2ccc(-c3ccn4nc(N[C@H]5CN(C6COC6)C[C@H]5F)ncc34)nc2n1CC(F)F [Compound 1944, 5-(3-(2,2-difluoroethyl)-2-methyl-3H-imidazo[4,5-b]pyridin-5-yl)-N-((3S,4R)-4-fluoro-1-(oxetan-3-yl)pyrrolidin-3-yl)pyrrolo[2,1-f][1,2,4]triazin-2-amine] |
| 3 nM | Cc1nc2ncc(-c3ccn4nc(NC5CCN(C(=O)C(C)C)CC5)ncc34)cc2n1CC(F)F [Compound 1888, 1-(4-((5-(1-(2,2-Difluoroethyl)-2-methyl-1H-imidazo[4,5-b]pyridin-6-yl)pyrrolo[2,1-f][1,2,4]triazin-2-yl)amino)piperidin-1-yl)-2-methylpropan-1-one] |
| 33 nM | Cc1nc2ccc(-c3ccn4nc(N[C@@H]5CCOC[C@H]5O)ncc34)nc2n1CC(F)F [Compound 1866, (3S,4R)-4-((5-(3-(2,2-Difluoroethyl)-2-methyl-3H-imidazo[4,5-b]pyridin-5-yl)pyrrolo[2,1-f][1,2,4]triazin-2-yl)amino)tetrahydro-2H-pyran-3-ol] |
| 3 nM | CC(=O)N1CCC(Nc2ncc3c(-c4ccc5nc(C)n(CC(F)F)c5n4)ccn3n2)CC1 [Compound 1857, 1-(4-((5-(3-(2,2-Difluoroethyl)-2-methyl-3H-imidazo[4,5-b]pyridin-5-yl)pyrrolo[2,1-f][1,2,4]triazin-2-yl)amino)piperidin-1-yl)ethan-1-one] |
| 4 nM | CC(=O)N1C[C@H](F)[C@H](Nc2ncc3c(-c4ccc5nc(C)n(CC(F)F)c5n4)ccn3n2)C1 [Compound 1941, 1-((3R,4S)-3-((5-(3-(2,2-Difluoroethyl)-2-methyl-3H-imidazo[4,5-b]pyridin-5-yl)pyrrolo[2,1-f] [1,2,4]triazin-2-yl)amino)-4-fluoropyrrolidin-1-yl)ethan-1-one] |
| 5 nM | Cc1nc2ccc(-c3ccn4nc(NC5CCNCC5)ncc34)nc2n1CC(F)F [Compound 1916, 5-(3-(2,2-difluoroethyl)-2-methyl-3H-imidazo[4,5-b]pyridin-5-yl)-N-(piperidin-4-yl)pyrrolo[2,1-f][1,2,4]triazin-2-amine] |
| 1 nM | CC(=O)N1CC2(CCC(Nc3ncc4c(-c5ccc6nc(C)n(CC(F)F)c6n5)ccn4n3)CC2)C1 [Compound 1899, 1-(7-((5-(3-(2,2-difluoroethyl)-2-methyl-3H-imidazo[4,5-b]pyridin-5-yl)pyrrolo[2,1-f][1,2,4]triazin-2-yl)amino)-2-azaspiro[3.5]nonan-2-yl)ethan-1-one] |
